Results reported in US20150037341A1, “Diagnostic and Therapeutic Method” (Plysackaridforskning i Uppsala AB, priority 2011, published 2015).

Legend:
[1] = molecular target: T1, dissociated TTR immobilized onto a Biacore sensor chip (Homo sapiens, UniProt P02766); experiment: Surface plasmon resonance (Biacore), heparin/HS over immobilized TTR; type: binding
T1 construct: made in house; host or cells: bacteria
Method: (A) Dissociated TTR was immobilized onto a Biacore sensor chip and heparin (10 μM) was allowed to interact with the immobilized TTR in neutral or in mildly acidic conditions. (B) HS II (10 μM) binding to TTR at different pH was monitored and the response for each sample is expressed as response units (RU). […] (C) TTR (50 μM) incubated with heparin or HS II for 7 days at pH 5.0 or pH 7.4 was analyzed by ThT fluorescence. Data represent triplicate experiments (means±SEM).
Dissociated TTR was immobilized onto a Biacore sensor chip. Heparin (A), HS II (B) or HS I (C) were injected in a concentration series (ranging from 0.001-70 μM) over the surface at pH 5.0. The response for each concentration was measured at the steady-state region of the curve. The apparent equilibrium dissociation constant (KD) was calculated by plotting the response at steady-state for each concentration versus heparin/HS concentration. The data were fitted to the equation: Response=(Rmax*C)/(KD+C), where C is the concentration of heparin/HS. Two analyte flow rates (20 and 30 μl/min) were tested to assess possible effects of mass transport limitations in the system. […] The presented values are average value of three independent experiments.
(A) Equal amount of dissociated or native protein was immobilized onto a Biacore sensor chip and HS II was allowed to interact with the immobilized TTR at pH 5.0. (B) The values of the HS II-TTR interaction signal were obtained by repeated experiments using three chips with different ligand densities (250-3000 RU). The signals were normalized to a ligand density of 1000 RU and average value is shown. Statistical analysis was done by t test.
Interaction of TTR with heparin/HS was evaluated using a Biosensor system (Biacore2000). TTR was dissociated in acidic buffer (pH 2.7) and then diluted into a 50 mM NaAc (pH 5.0) coupling buffer and immobilized onto a CM5 sensor chip to a level of 3000 RU using an amine-coupling kit (GE Healthcare, Uppsala, Sweden). For binding and kinetic analysis, heparin or HS was injected (concentrations indicated in figure legend) over the surface and equilibrated at different pH. The surface was regenerated after each sample with a 30 s wash step of 0.5 M NaCl. All obtained sensorgrams were double-reference subtracted in Biacore evaluation software 2.0, using the reference flow cell and buffer blank sample.

[2] = Nitrocellulose-filter trapping of 3H-labeled heparin bound to TTR peptides; type: binding; conditions: pH 5.0, 3H-labeled heparin 1500 cpm
Method: (A) TTR amino acid sequence where histidine “(+)” and other basic amino acids “+” are marked. (B) Equal mole of TTR-peptides or full-length protein (with or without acidic dissociation), were incubated with ^3H-labeled heparin (1500 cpm) at pH 5.0. The amount of ^3H-labeled heparin bound to the peptides was analyzed using a nitrocellulose-filter trapping method.
To characterize the TTR-heparin interaction, we incubated TTR and its peptide fragments with ^3H-heparin. The binding was analyzed by a nitrocellulose-filter trapping method (18). […] This heparin-binding peptide contains three basic amino acids, including a histidine that likely contributed to the pH dependency seen in the TTR-heparin/HS interaction. This selective binding propy was further verified by SPR analysis (FIG. 9).

[3] = SPR analysis of TTR peptides binding to immobilized heparin; conditions: pH 5.0, peptide conc. 25 μg/ml, flow rate 20 μl/min
Method: Heparin was immobilized onto a Biacore sensor chip (CM5) using the surface thiol coupling kit (GE Healthcare). Peptides derived from regions on the TTR sequence (FIG. 5A) containing a histidine residue (24-35, 51-61 and 84-94), were allowed to interact with the heparin surface at pH 5.0 (peptide conc. 25 μg/ml; flow rate 20 μl/min).

| Compound | Binding to surface immobilized with dissociated TTR (SPR) ([1]; Thioflavin T 50 μM) | Binding to surface immobilized with aggregated TTR (SPR) ([1]; Thioflavin T injection) | Binding of 3H-labeled heparin to the peptide [2] | Interaction of the peptide with the heparin surface (SPR) [3] |
| --- | --- | --- | --- | --- |
| Cc1ccc2c(c1)sc(-c1ccc(N(C)C)cc1)[n+]2C.[Cl-] [Thioflavin T] | no binding | significant binding |  |  |
| 24-35 peptide containing the V30M mutation: TTR 24-35 peptide with the V30M mutation associated with familial amyloid neuropathy (PAINVAMHVFRK; UniProt P02766 44-55, looked up, variant V30M) |  |  | substantially lower binding to heparin compared to the WT peptide |  |
| PAINVAVHVFRK [peptide of aa 24-35, Synthesized peptide of aa 24-35 of TTR] |  |  | bound to heparin | interacted with heparin |
